The target of the test is recombinant human NUDT5 (Homo sapiens, UniProt Q9UKK9). Nature of the test: NUDT5 inhibitor activity by malachite green reporter assay. In kind it is biochemical. The conditions noted are these: 6 nM NUDT5, 50 μM ADP-Ribose, 15 minutes at room temperature. The procedure, abridged: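 Coupled ADP-ribose hydrolysis in 10 mM Tris-acetate pH 8.0, 40 mM NaCl, 10 mM Mg acetate, 0.005% Tween-20, 1 mM DTT: 6 nM NUDT5, 50 μM ADP-Ribose, 10 U/ml alkaline phosphatase, 15 min at room temperature. Pi read by malachite green at 630 nm; compounds 100 μM–1.7 nM, 3-fold; IC50 by curve fit.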
On the technique in general: In a reporter assay the amount or activity of a reporter protein is the signal.

Each structure is given as a SMILES string.

A word on the IC50: it is the point on the concentration scale where inhibition reaches its midpoint. Take `Cc1cc(-c2nnc(Cn3c(N4CCNCC4)nc4c3c(=O)n(C)c(=O)n4C)o2)ccc1Cl` [Example 116, 7-{[5-(4-chloro-3-methylphenyl)-1,3,4-oxadiazol-2-yl]methyl}-1,3-dimethyl-8-(piperazin-1-yl)-2,3,6,7-tetrahydro-1H-purine-2,6-dione]: the IC50 (Table 4) was 21.6 nM.

In the case of `COc1ccc(-c2cc(Cn3c(N4CCNCC4)nc4c3c(=O)n(C)c(=O)n4C)on2)cc1` [Example 78, 7-{[3-(4-methoxyphenyl)-1,2-oxazol-5-yl]methyl}-1,3-dimethyl-8-(piperazin-1-yl)-2,3,6,7-tetrahydro-1H-purine-2,6-dione], for the setting “Table 4”, the IC50 came to 491 nM.

`CCCCCCN1CCN(c2nc3c(c(=O)n(C)c(=O)n3C)n2Cc2nnc(-c3cccc(C)c3)o2)CC1` [Example 53, 8-(4-hexylpiperazin-1-yl)-1,3-dimethyl-7-{[5-(3-methylphenyl)-1,3,4-oxadiazol-2-yl]methyl}-2,3,6,7-tetrahydro-1H-purine-2,6-dione]: the IC50 (Table 3) came to 806 nM.

In the case of `Cn1c(=O)c2c(nc(SC3CCCCC3)n2Cc2nnc(-c3ccc(Cl)c(Cl)c3)o2)n(C)c1=O` [Example 7, 8-(cyclohexylsulfanyl)-7-{[5-(3,4-dichlorophenyl)-1,3,4-oxadiazol-2-yl]methyl}-1,3-dimethyl-2,3,6,7-tetrahydro-1H-purine-2,6-dione], the IC50 (Table 3) was 65.9 nM.

As to `COc1cc(-c2nnc(Cn3c(N(C)CCN(C)C)nc4c3c(=O)n(C)c(=O)n4C)o2)ccc1C` [Example 137, 8-{[2-(dimethylamino)ethyl](methyl)amino}-7-{[5-(3-methoxy-4-methylphenyl)-1,3,4-oxadiazol-2-yl]methyl}-1,3-dimethyl-2,3,6,7-tetrahydro-1H-purine-2,6-dione], the IC50 (Table 4) was found to be 24.1 nM.

In the case of `Cn1c(=O)c2c(nc(Cl)n2Cc2nnc(-c3ccc(Cl)cc3)o2)n(C)c1=O` [Example 89, 8-chloro-7-{[5-(4-chlorophenyl)-1,3,4-oxadiazol-2-yl]methyl}-1,3-dimethyl-2,3,6,7-tetrahydro-1H-purine-2,6-dione], the IC50 (Table 4) was determined as 620 nM.

As to `Cn1c(=O)c2c(nc(N3CCCNCC3)n2Cc2nnc(-c3ccc(Cl)c(Cl)c3)o2)n(C)c1=O` [Example 27, 8-(1,4-diazepan-1-yl)-7-{[5-(3,4-dichlorophenyl)-1,3,4-oxadiazol-2-yl]methyl}-1,3-dimethyl-2,3,6,7-tetrahydro-1H-purine-2,6-dione], for the setting “Table 3”, the IC50 came to 19.3 nM.

As to `Cn1c(=O)c2c(nc(N3CCC(O)C3)n2Cc2nnc(-c3ccc(Cl)c(Cl)c3)o2)n(C)c1=O` (stereo not drawn) [Example 34, 7-{[5-(3,4-dichlorophenyl)-1,3,4-oxadiazol-2-yl]methyl}-8-(3-hydroxypyrrolidin-1-yl)-1,3-dimethyl-2,3,6,7-tetrahydro-1H-purine-2,6-dione], the IC50 (Table 3) was 24.7 nM.

As for `Cc1ccc(-c2cc(Cn3c(N4CCNCC4)nc4c3c(=O)n(C)c(=O)n4C)no2)cc1` [Example 79, 1,3-dimethyl-7-{[5-(4-methylphenyl)-1,2-oxazol-3-yl]methyl}-8-(piperazin-1-yl)-2,3,6,7-tetrahydro-1H-purine-2,6-dione], the IC50 (Table 4) stood at 530 nM.

On to `Cn1c(=O)c2c(nc(N3CCNCC3)n2Cc2nnc(-c3ccc([N+](=O)[O-])cc3)o2)n(C)c1=O` [Example 115, 1,3-dimethyl-7-{[5-(4-nitrophenyl)-1,3,4-oxadiazol-2-yl]methyl}-8-(piperazin-1-yl)-2,3,6,7-tetrahydro-1H-purine-2,6-dione], for which, for the setting “Table 4”, the IC50 was determined as 286 nM.

For the compound `Cn1c(=O)c2c(nc(Cl)n2Cc2nnc(-c3ccc(CS(C)(=O)=O)cc3)o2)n(C)c1=O` [Example 103, 8-chloro-7-({5-[4-(methanesulfonylmethyl)phenyl]-1,3,4-oxadiazol-2-yl}methyl)-1,3-dimethyl-2,3,6,7-tetrahydro-1H-purine-2,6-dione], the IC50 (Table 4) was determined as 61600 nM.

Regarding `COC(=O)C1CCN(c2nc3c(c(=O)n(C)c(=O)n3C)n2Cc2nnc(-c3ccc(Cl)c(Cl)c3)o2)CC1` [Example 39, methyl 1-(7-{[5-(3,4-dichlorophenyl)-1,3,4-oxadiazol-2-yl]methyl}-1,3-dimethyl-2,6-dioxo-2,3,6,7-tetrahydro-1H-purin-8-yl)piperidine-4-carboxylate], where the note is “Table 3”, the IC50 came to 32.7 nM.

Take `Cn1c(=O)c2c(nc(Cl)n2Cc2nnc(-c3ccc(C(F)(F)F)cc3)o2)n(C)c1=O` [Example 102, 8-chloro-1,3-dimethyl-7-({5-[4-(trifluoromethyl)phenyl]-1,3,4-oxadiazol-2-yl}methyl)-2,3,6,7-tetrahydro-1H-purine-2,6-dione]: the IC50 (Table 4) was 484 nM.

On to `COc1cc(-c2nnc(Cn3c(NCCNS(C)(=O)=O)nc4c3c(=O)n(C)c(=O)n4C)o2)ccc1C` [Example 133, N-{2-[(7-{[5-(3-methoxy-4-methylphenyl)-1,3,4-oxadiazol-2-yl]methyl}-1,3-dimethyl-2,6-dioxo-2,3,6,7-tetrahydro-1H-purin-8-yl)amino]ethyl}methanesulfonamide], for which, where the note is “Table 4”, the IC50 stood at 352 nM.

Regarding `Cn1c(=O)c2c(nc(N3CCNCC3)n2Cc2cnc(-c3ccc(Cl)cc3)s2)n(C)c1=O` [Example 76, 7-{[2-(4-chlorophenyl)-1,3-thiazol-5-yl]methyl}-1,3-dimethyl-8-(piperazin-1-yl)-2,3,6,7-tetrahydro-1H-purine-2,6-dione], the IC50 (Table 4) was found to be 376 nM.

`COc1ccc(-c2nnc(Cn3c(Cl)nc4c3c(=O)n(C)c(=O)n4C)o2)cc1` [Example 73, 8-chloro-7-{[5-(4-methoxyphenyl)-1,3,4-oxadiazol-2-yl]methyl}-1,3-dimethyl-2,3,6,7-tetrahydro-1H-purine-2,6-dione]: under “Table 4”, the IC50 came to 1260 nM.

Consider `Cn1c(=O)c2c(nc(N3CCNCC3)n2Cc2nnc(-c3ccc(C(F)(F)F)cc3)o2)n(C)c1=O` [Example 121, 1,3-dimethyl-8-(piperazin-1-yl)-7-({5-[4-(trifluoromethyl)phenyl]-1,3,4-oxadiazol-2-yl}methyl)-2,3,6,7-tetrahydro-1H-purine-2,6-dione], for which, for the setting “Table 4”, the IC50 was determined as 51.6 nM.

Consider `Cn1c(=O)c2c(nc(N3CCNCC3)n2Cc2nnc(-c3ccc(N4CCNCC4)nc3)o2)n(C)c1=O` [Example 114, 1,3-dimethyl-8-(piperazin-1-yl)-7-({5-[6-(piperazin-1-yl)pyridin-3-yl]-1,3,4-oxadiazol-2-yl}methyl)-2,3,6,7-tetrahydro-1H-purine-2,6-dione], for which the IC50 (Table 4) came to 29000 nM.

In the case of `CCSc1nc2c(c(=O)n(C)c(=O)n2C)n1Cc1nnc(-c2ccc(Cl)c(Cl)c2)o1` [Example 6, 7-{[5-(3,4-dichlorophenyl)-1,3,4-oxadiazol-2-yl]methyl}-8-(ethylsulfanyl)-1,3-dimethyl-2,3,6,7-tetrahydro-1H-purine-2,6-dione], the IC50 (Table 3) is 36.9 nM.

As for `COc1cc(-c2nnc(Cn3c(Cl)nc4c3c(=O)n(C)c(=O)n4C)o2)ccc1Cl` [Example 98, 8-chloro-7-{[5-(4-chloro-3-methoxyphenyl)-1,3,4-oxadiazol-2-yl]methyl}-1,3-dimethyl-2,3,6,7-tetrahydro-1H-purine-2,6-dione], the IC50 (Table 4) was 378 nM.

On to `Cn1c(=O)c2c(nc(N3CCNCC3)n2Cc2coc(-c3ccc(Cl)c(Cl)c3)n2)n(C)c1=O` [Example 72, 7-{[2-(3,4-dichlorophenyl)-1,3-oxazol-4-yl]methyl}-1,3-dimethyl-8-(piperazin-1-yl)-2,3,6,7-tetrahydro-1H-purine-2,6-dione], for which the IC50 (Table 4) was found to be 21 nM.

The record behind these values is US20210128566A1, “NOVEL FUNCTIONALIZED PURINE-2,6-DIONES AND THEIR USE IN MEDICINE” (THOMAS HELLEDAYS STIFTELSE FÖR MEDICINSK FORSKNING, priority 2017, published 2021).
